From the supplement of paper PMC11061612

Columns and labels:
Experiment in all cases: combination Emax (second highest fraction inhibited in the dose matrix, 72 h); higher = more inhibition; extreme values may be limits of the assay
GI-1 (Glioblastoma) = system: GI-1 (Glioblastoma)
How it was run: (§1)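 Cell lines grown in DMEM/F12 or RPMI with 10% FBS were plated in 1536-well plates and held 24 hours at 37°C, 5% CO2 before 72 hours of exposure to two-drug dose matrices, with DMSO typically at 0.2%. CellTiter-Glo 2.0 luminescence gave viability, which was converted to inhibition. Vehicle wells were set to 0 and blank wells to 1. Combination Emax is the second-highest inhibition in the matrix, and Bliss excess is the observed combination effect minus the expected EA + EB − EA·EB, where EA and EB are the single-agent effects.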

[1] = system: ASH-3 (Thyroid Gland Carcinoma)
How it was run: as §1

[2] = system: HSC-2 (Oral Cavity Carcinoma)
How it was run: as §1

A704 (Kidney Carcinoma) = system: A704 (Kidney Carcinoma)
How it was run: as §1

[3] = system: NCI-H2347 (Lung Adenocarcinoma)
How it was run: as §1

BT-20 (Breast Carcinoma) = system: BT-20 (Breast Carcinoma)
How it was run: as §1

[4] = system: EBC-1 (Squamous Cell Lung Carcinoma)
How it was run: as §1

[5] = system: NCI-N87 (Gastric Carcinoma)
How it was run: as §1

[6] = system: SCC-9 (Oral Cavity Carcinoma)
How it was run: as §1

[7] = system: SCC-3 (B-Cell Non-Hodgkin's Lymphoma)
How it was run: as §1

NH-12 (Neuroblastoma) = system: NH-12 (Neuroblastoma)
How it was run: as §1

[8] = system: BV-173 (Chronic Myelogenous Leukemia)
How it was run: as §1

[9] = system: KINGS-1 (Low Grade Glioma)
How it was run: as §1

[10] = system: KLE (Endometrial Carcinoma)
How it was run: as §1

[11] = system: H-EMC-SS (Chondrosarcoma)
How it was run: as §1

[12] = system: KP-2 (Pancreatic Carcinoma)
How it was run: as §1

RPMI-7951 (Melanoma) = system: RPMI-7951 (Melanoma)
How it was run: as §1

[13] = system: SNU-C1 (Colorectal Carcinoma)
How it was run: as §1

[14] = system: KU-19-19 (Bladder Carcinoma)
How it was run: as §1

[15] = system: PF-382 (T-Lymphoblastic Leukemia)
How it was run: as §1

CC1(C)CCC(CN2CCN(c3ccc(C(=O)NS(=O)(=O)c4ccc(NCC5CCOCC5)c([N+](=O)[O-])c4)c(Oc4cnc5[nH]ccc5c4)c3)CC2)=C(c2ccc(Cl)cc2)C1 [Venetoclax] + CCN(CCO)CCCOc1ccc2c(Nc3cc(CC(=O)Nc4cccc(F)c4)[nH]n3)ncnc2c1 [AZD2811] (first compound max 1 µM, 7x7, partner max 1 µM)
combination Emax (GI-1 (Glioblastoma)): 0.389 | combination Emax [1]: 0.318 | combination Emax [2]: 0.327 | combination Emax (A704 (Kidney Carcinoma)): 0.167 | combination Emax [3]: 0.145 | combination Emax (BT-20 (Breast Carcinoma)): 0.294 | combination Emax [4]: 0.225 | combination Emax [5]: 0.242 | combination Emax [6]: 0.25 | combination Emax [7]: 0.31 | combination Emax (NH-12 (Neuroblastoma)): 0.933 | combination Emax [8]: 0.958 | combination Emax [9]: 0.243 | combination Emax [10]: 0.273 | combination Emax [11]: 0.164 | combination Emax [12]: 0.228 | combination Emax (RPMI-7951 (Melanoma)): 0.454 | combination Emax [13]: 0.266 | combination Emax [14]: 0.404 | combination Emax [15]: 0.905

CC1(C)CCC(CN2CCN(c3ccc(C(=O)NS(=O)(=O)c4ccc(NCC5CCOCC5)c([N+](=O)[O-])c4)c(Oc4cnc5[nH]ccc5c4)c3)CC2)=C(c2ccc(Cl)cc2)C1 [Venetoclax] + C=CCn1c(=O)c2cnc(Nc3ccc(N4CCN(C)CC4)cc3)nc2n1-c1cccc(C(C)(C)O)n1 [AZD1775] (first compound max 1 µM, partner max 1 µM)
combination Emax (GI-1 (Glioblastoma)): 0.902 | combination Emax [1]: 0.294 | combination Emax [2]: 0.833 | combination Emax (A704 (Kidney Carcinoma)): 0.463 | combination Emax [3]: 0.291 | combination Emax (BT-20 (Breast Carcinoma)): 0.672 | combination Emax [4]: 0.248 | combination Emax [5]: 0.8 | combination Emax [6]: 0.294 | combination Emax [7]: 0.903 | combination Emax (NH-12 (Neuroblastoma)): 0.952 | combination Emax [8]: 0.941 | combination Emax [9]: 0.567 | combination Emax [10]: 0.51 | combination Emax [11]: 0.223 | combination Emax [12]: 0.364 | combination Emax (RPMI-7951 (Melanoma)): 0.731 | combination Emax [13]: 0.555 | combination Emax [14]: 0.841 | combination Emax [15]: 0.986

C[C@@H](c1ccc2nccn2c1)n1nnc2ncc(-c3cnn(C)c3)nc21 [Savolitinib] + Cc1c2c(nn1C)CSCc1cc(n(C)n1)CSc1cc(c3ccccc3c1)OCCCc1c(C(=O)O)n(C)c3c-2c(Cl)ccc13 [AZD5991] (first compound max 1 µM, 7x7, partner max 1 µM)
combination Emax (GI-1 (Glioblastoma)): 0.587 | combination Emax [1]: 0.299 | combination Emax [2]: 0.711 | combination Emax (A704 (Kidney Carcinoma)): 0.256 | combination Emax [3]: 0.107 | combination Emax (BT-20 (Breast Carcinoma)): 0.465 | combination Emax [4]: 1 | combination Emax [5]: 0.22 | combination Emax [6]: 0.185 | combination Emax [7]: 0.279 | combination Emax (NH-12 (Neuroblastoma)): 0.202 | combination Emax [8]: 0.704 | combination Emax [9]: 0.323 | combination Emax [10]: 0.162 | combination Emax [11]: 0.182 | combination Emax [12]: 0.205 | combination Emax (RPMI-7951 (Melanoma)): 0.266 | combination Emax [13]: 0.396 | combination Emax [14]: 0.204 | combination Emax [15]: 0.134

NC1(C(=O)N[C@@H](CCO)c2ccc(Cl)cc2)CCN(c2ncnc3[nH]ccc23)CC1 [Capivasertib] + COc1nnc2ccc(N3CCC(c4ccc(OCCN5CCN(C)C(=O)[C@H]5C)cc4)CC3)nn12 [AZD5153] (first compound max 10 µM, 7x7, partner max 1 µM)
combination Emax (GI-1 (Glioblastoma)): 0.915 | combination Emax [1]: 0.831 | combination Emax [2]: 0.874 | combination Emax (A704 (Kidney Carcinoma)): 0.645 | combination Emax [3]: 0.314 | combination Emax (BT-20 (Breast Carcinoma)): 0.813 | combination Emax [4]: 0.829 | combination Emax [5]: 0.772 | combination Emax [6]: 0.538 | combination Emax [7]: 0.827 | combination Emax (NH-12 (Neuroblastoma)): 0.634 | combination Emax [8]: 0.905 | combination Emax [9]: 0.349 | combination Emax [10]: 0.639 | combination Emax [11]: 0.351 | combination Emax [12]: 0.442 | combination Emax (RPMI-7951 (Melanoma)): 0.865 | combination Emax [13]: 0.813 | combination Emax [14]: 0.746 | combination Emax [15]: 1

CN(CCO)CC[C@H](CSc1ccccc1)Nc1ccc(S(=O)(=O)NC(=O)c2ccc(N3CCC([C@@H](O)c4ccccc4-c4ccc(Cl)cc4)CC3)cc2)cc1S(=O)(=O)C(F)(F)F [AZD4320] + C[C@@H](Nc1cc(F)cc(F)c1)c1cc(C(=O)N(C)C)cc2c(=O)cc(N3CCOCC3)oc12 [AZD8186] (first compound max 1 µM, 7x7, partner max 3 µM)
combination Emax (GI-1 (Glioblastoma)): 0.813 | combination Emax [1]: 0.682 | combination Emax [2]: 0.897 | combination Emax (A704 (Kidney Carcinoma)): 0.57 | combination Emax [3]: 0.698 | combination Emax (BT-20 (Breast Carcinoma)): 0.614 | combination Emax [4]: 0.972 | combination Emax [5]: 0.638 | combination Emax [6]: 0.746 | combination Emax [7]: 0.543 | combination Emax (NH-12 (Neuroblastoma)): 0.998 | combination Emax [8]: 0.971 | combination Emax [9]: 0.629 | combination Emax [10]: 0.61 | combination Emax [11]: 0.727 | combination Emax [12]: 0.827 | combination Emax (RPMI-7951 (Melanoma)): 0.701 | combination Emax [13]: 0.484 | combination Emax [14]: 0.315 | combination Emax [15]: 1

Cc1cc2ncnn2cc1Nc1ncc2c(n1)n(C1CCOCC1)c(=O)n2C [AZD7648] + CN(C)CCCOc1ccc(-c2ccc3ncc4c(c3c2)n(C2CCOCC2)c(=O)n4C)cn1 [AZD0156] (first compound max 10 µM, 7x7, partner max 1 µM)
combination Emax (GI-1 (Glioblastoma)): 0.261 | combination Emax [1]: 0.332 | combination Emax [2]: 0.398 | combination Emax (A704 (Kidney Carcinoma)): 0.215 | combination Emax [3]: 0.336 | combination Emax (BT-20 (Breast Carcinoma)): 0.413 | combination Emax [4]: 0.218 | combination Emax [5]: 0.477 | combination Emax [6]: 0.24 | combination Emax [7]: 0.299 | combination Emax (NH-12 (Neuroblastoma)): 0.153 | combination Emax [8]: 0.386 | combination Emax [9]: 0.3 | combination Emax [10]: 0.36 | combination Emax [11]: 0.545 | combination Emax [12]: 0.0295 | combination Emax (RPMI-7951 (Melanoma)): 0.396 | combination Emax [13]: 0.316 | combination Emax [14]: 0.212 | combination Emax [15]: 0.478
